One data set relates to central nervous system. Description: tele-stereo EEG (electroencephalography) of rats after oral administration. In kind it is in vivo. To be noted: for effect of the compound according to formula I reached by known rooibos constituents: approximately equimolar quantities. The source says:
In the context of the present invention, the pharmacological activity of the compound according to the invention of formula I was compared with the known constituents of the rooibos extract, such as aspalathin, catechin or (−)-epicatechin.
Since these drugs have a broad spectrum of side effects, the use of a rooibos extract with the compound according to formula I is advantageous as a drug because natural substances can usually be expected to have a lower rate of side effects. […] This is not generally commonplace for flavonoids.

The next data set concerns monoamine oxidase. The settings on record: Plantextrakt, 2005; cited from earlier work.
A short description of data set [1]: solubility during the preparation of the HPLC standard solutions. It counts as physicochemical. The settings on record: preparation of the standard solutions for HPLC.

Data on seven compounds can be found in patent US20110159122A1, “COMBINATION OF EXTRACTS OF VARIOUS PLANTS FOR IMPROVING THE SYMPTOMS OF DEMENTIA DISORDERS” (Kneipp-Werke Kneipp-Mittel-Zentrale GmbH & Co,KG, priority 2008, published 2011).

Consider `Oc1cc(O)c2c(c1)O[C@H](c1ccc(O)c(O)c1)[C@H](O)C2` [(−)-epicatechin], for which the “effect of the compound according to formula I reached by known rooibos constituents” value (from here on “effect of the compound according”) in the data set with central nervous system was “cannot be achieved with approximately equimolar quantities”. Turning to `O=c1c(O)c(-c2ccc(O)c(O)c2)oc2cc(O)cc(O)c12` [Quercetin], the “inhibition of the production of monoamine oxidase” value in the data set on monoamine oxidase is listed as “capable of inhibiting the production of monoamine oxidase”. Regarding `O=C(CCc1ccc(O)c(O)c1)c1c(O)cc(O)c([C@@H]2O[C@H](CO)[C@@H](O)[C@H](O)[C@H]2O)c1O` [aspalathin], in the data set on central nervous system, the “effect of the compound according” value was “cannot be achieved with approximately equimolar quantities”. `O=C(CCc1ccc(O)c(O)c1)c1c(O)c(C2OC(CO)C(O)C(O)C2O)c(O)c(C2c3c(O)cc(O)cc3OC(c3ccc(O)c(O)c3)C2O)c1O` (centres unmarked) [compound of formula I, aspacat]: the “crossing of the blood-brain barrier” value in the data set on central nervous system (concluded from the in vivo EEG data) is “evidently also crosses the blood-brain barrier”. For the same compound, in the data set on central nervous system (rat, in vivo), the “discriminant analysis of the in vivo data” value is “a relationship with the drugs for the treatment of dementias, Morbus Parkinson, depression and painful conditions”. Moreover, in the data set on central nervous system (rats, oral administration), the “pharmacological activity on the central nervous system in tele-stereo EEG” value is “marked pharmacological activity on the central nervous system”. Besides, the “changes in the EEG frequencies” value in the data set on central nervous system (rats, oral administration, as known for galantamine, tacrine, L-DOPA, nefopam) is on record as “dose-dependent changes in the EEG frequencies”. Besides, in the data set with central nervous system (versus aspalathin, catechin, (−)-epicatechin), the “pharmacological activity compared with known constituents of the rooibos extract” value was “higher pharmacological activity than these known constituents of the rooibos extract”.

With `O=c1cc(-c2ccc(O)c(O)c2)oc2c([C@@H]3O[C@H](CO)[C@@H](O)[C@H](O)[C@H]3O)c(O)cc(O)c12` [orientin, orientin(luteolin-8-C-glucoside)], in data set [1], the “solubility in standard solutions” value is reported as “exhibited solubility problems”. In the case of `O=c1cc(-c2ccc(O)cc2)oc2c([C@@H]3O[C@H](CO)[C@@H](O)[C@H](O)[C@H]3O)c(O)cc(O)c12` [vitexin, vitexin(apigenin-8-C-glucoside)], the “solubility in standard solutions” value in data set [1] is “exhibited solubility problems”.

With catechin, in the data set on central nervous system, the “effect of the compound according” value was “cannot be achieved with approximately equimolar quantities”.
